# Data reported in patent publication US10327423B2, “Antimicrobial compounds and compositions, and uses thereof” (Akeso Biomedical, Inc., priority 2014, dated 2019).
# “Also recorded” adds a separate entry of the source.
# How the values were obtained:
# EPEC-AcsrA = test: BioFlux system, disruption of a mature biofilm; format: cell-based, Escherichia coli; conditions: 20 hours
# Method: The mature biofilm was treated with FeTyr at concentrations of 100, 150 and 200 μM for 20 hours and compared to a control biofilm that had just been treated with LB medium 30% v/v. […] Mature biofilm was treated with FeDOPA at a concentration of 100 μM for 20 hours and compared to a control biofilm that had just been treated with LB medium 30% v/v.
# [1] = tested on: Enteropathogenic E. coli (EPEC) E2348/69; test: Crystal violet assay of attachment to plastic wells; format: cell-based, Escherichia coli; conditions: FeDOPA 68-250 μM; 48 hours at 37° C.
# Method: Enteropathogenic E. coli (EPEC) E2348/69 were grown in wells for 48 hours at 37° C. in the presence of FeQ (100 μM), and in the absence of FeQ (as control). After 48 hours, the wells were washed in order to remove suspended cells. Crystal violet was then added to each well. The wells were then washed to remove excess dye. A mixture of acetone/ethanol was then added to the wells to re-suspend any cells attached to the plastic surface of the wells, and dissolve any dye present. The presence of dye in each well was then quantified by measuring the O.D. at 570 nm.
# Enteropathogenic E. coli (EPEC) E2348/69 were grown in wells for 48 hours at 37° C. in the presence of FeDOPA (10-250 μM), and in the absence of FeDOPA (as control). After 48 hours, the wells were washed in order to remove suspended cells. Crystal violet was then added to each well. The wells were then washed to remove excess dye. A mixture of acetone/ethanol was then added to the wells to re-suspend any cells attached to the plastic surface of the wells, and dissolve any dye present. The presence of dye in each well was then quantified by measuring the O.D. at 570 nm.
# [2] = tested on: Enteropathogenic E. coli (EPEC) strain E2348/69; test: Growth curve of antibiotic resistant EPEC with gentamicin and Fe complex; format: cell-based, Escherichia coli
# Method: The impact on the growth curve of antibiotic resistant Enteropathogenic E. coli (EPEC) strain E2348/69 (genotype Wild Type EPEC O17:H6) when grown in the presence of (i) gentamicin (1.25 μM), (ii) Fe-Tyr (100 μM), (iii) gentamicin (1.25 μM) and Fe-Tyr (1.25 μM), and (iv) a control with no gentamicin or Fe-Tyr present was determined.
# The impact on the growth curve of antibiotic resistant Enteropathogenic E. coli (EPEC) strain E2348/69 (genotype Wild Type EPEC O17:H6) when grown in the presence of a fixed concentration of gentamicin (1.25 μM) and an increasing concentration of FeQ versus the strain grown in the presence of only FeQ or only gentamicin, was determined.
# The impact on the growth curve of antibiotic resistant Enteropathogenic E. coli (EPEC) strain E2348/69 (genotype Wild Type EPEC O17:H6) when grown in the presence of a fixed concentration of gentamicin (1.25 μM) and an increasing concentration of FeDOPA versus the strain grown in the presence of only FeDOPA or only gentamicin, was determined.
# Campylobacter = Campylobacter carriage in chickens (cfu/g of droppings and caeca samples); format: in vivo; conditions: treatment groups 3, 5, 6, 7 (FeQ) and 8 (FeTyr), days 0-42; dirty litter challenge
# Method: A study was performed to evaluate growth promotion and reduction of Campylobacter carriage using FeQ and FeTyr in Ross 308 male broilers with 7 treatment groups. Each treatment group comprised four replicates of 10 birds per pen (40 birds/treatment group and 4 pens of 10 birds/treatment group), and there were 2 control groups and 5 test groups. All the test groups and one of the control groups were exposed at day 20 of the trial to dirty litter, which tested positive for Campylobacter. This method was used to provide a more natural method to Campylobacter challenge the birds. Thus there was a positive control where one treatment group was challenged with Campylobacter and one negative control group where the birds were not challenged, and five treatment groups that were all challenged with Campylobacter. The total number of birds used in the 7 treatment groups was 280. Treatment group 1 was a negative control where birds just received the commercial feed, and were not challenged with dirty litter containing Campylobacter. Treatment group 2 was the positive control where the birds received the commercial feed, and were challenged with dirty litter containing Campylobacter at day 20. Treatment group 3 received 0.22 g/L of FeQ in their drinking water and 0.22 g/Kg FeQ in their feed during the entire trial, and was challenged with dirty litter containing Campylobacter at day 20. Treatment group 5 received 0.22 g/L of FeQ in their drinking water during the entire trial, and was challenged with dirty litter containing Campylobacter at day 20. Treatment group 6 received 0.22 g/kg FeQ in their feed during the entire trial, and was challenged with dirty litter containing Campylobacter at day 20. […]
# Prior to challenging the chickens with dirty litter containing Campylobacter at day 20, each pen was tested for Campylobacter using cloacal swabs. […] Samples were analyzed for blood chemistry, including analysis for alkaline phosphatase, aspartate amino transferase, alanine amino transferase, gamma-glutamyl transferase, lactate dehydrogenase, total protein, albumin, globulin, amylase and glucose.
# EPEC-pgA^++ = test: Crystal violet assay of disruption of a mature biofilm; format: cell-based, Escherichia coli; conditions: FeTyr 100, 150 and 200 μM; 72 hours
# Method: A mature biofilm formed by EPEC-pgA^++ was treated with FeTyr for 24, 48 and 72 hours at FeTyr concentrations of 100 μM, 150 μM and 200 μM and the presence of the biofilm after these times was compared to an untreated biofilm (labeled “Control”) using a crystal violet assay. The color of the control wells was more intense in color at 72 hours than those that were treated with FeTyr at 100, 150 and 200 μM for 72 hours.
# [3] = Growth performance of broilers challenged with Campylobacter dirty litter at day 20; format: in vivo, chicken (Ross 308 male broilers); conditions: treatment groups 3, 5, 6, 7 (FeQ) and 8 (FeTyr)
# Method: A study was performed to evaluate growth promotion and reduction of Campylobacter carriage using FeQ and FeTyr in Ross 308 male broilers with 7 treatment groups. Each treatment group comprised four replicates of 10 birds per pen (40 birds/treatment group and 4 pens of 10 birds/treatment group), and there were 2 control groups and 5 test groups. All the test groups and one of the control groups were exposed at day 20 of the trial to dirty litter, which tested positive for Campylobacter. This method was used to provide a more natural method to Campylobacter challenge the birds. Thus there was a positive control where one treatment group was challenged with Campylobacter and one negative control group where the birds were not challenged, and five treatment groups that were all challenged with Campylobacter. The total number of birds used in the 7 treatment groups was 280. Treatment group 1 was a negative control where birds just received the commercial feed, and were not challenged with dirty litter containing Campylobacter. Treatment group 2 was the positive control where the birds received the commercial feed, and were challenged with dirty litter containing Campylobacter at day 20. Treatment group 3 received 0.22 g/L of FeQ in their drinking water and 0.22 g/Kg FeQ in their feed during the entire trial, and was challenged with dirty litter containing Campylobacter at day 20. Treatment group 5 received 0.22 g/L of FeQ in their drinking water during the entire trial, and was challenged with dirty litter containing Campylobacter at day 20. Treatment group 6 received 0.22 g/kg FeQ in their feed during the entire trial, and was challenged with dirty litter containing Campylobacter at day 20. Treatment group 7 received 0.022 g/L FeQ in their drinking water during the entire trial, and was challenged with dirty litter containing Campylobacter at day 20. Treatment group 8 received 0.02 g/L FeTyr in their drinking water during the entire trial, and was challenged with dirty litter containing Campylobacter at day 20. The FeTyr was pre-dissolved in DMSO, and diluted to provide a solution of 0.02 g/L of FeTyr in water. (An additional treatment group 4 was terminated due to solubility issues.) […]
# The feeding program is show in Table 4. […] All birds were weighed individually and feed weigh backs recorded per pen at day 0, 11, 21, 24 and 42 days.
# In order to minimize risk of cross-contamination, standard industry biosecurity measures were used including: disinfecting boots, changing overshoes and gloves between pens/treatments, entering Campylobacter negative pens before entering Campylobacter positive pens, and leaving adjacent pens empty. Daily health, culls, and mortality were recorded. All bird weights were recorded at 0, 11, 21, 24, 33 and 42 days. […]
# [4] = tested on: Psuedomonas aeruginosa (PAO1N); test: Growth (OD600) in LB with Amikacin, tolerance to antibiotic; format: cell-based, Pseudomonas aeruginosa; conditions: 34, 100, 200 and 340 μM of FeQ or FePhe; Amikacin 10 µg/ml; 17.5 hours at 37° C.
# Method: (§1) To investigate effects upon antibiotic resistance, a laboratory strain of Psuedomonas aeruginosa (PAO1N) and a mixed population of clinical isolates (PAO Mixed) were incubated in Luria-Bertani (LB) media alone, or with different concentrations (34 μM, 100 μM, 200 μM and 340 μM) of FeQ or FePhe.
# (§2) Each of the different media, bar one control, contained 10 µg/ml of the aminoglycoside antibiotic Amikacin.
# (§3) 10 μl of the bacterial strains were added into each well of a 96-well micro-titer plate, before 290 μl of the relevant media was added to wells. Each different condition was repeated in sextuplicate.
# (§4) The plate was incubated at 37° C. within a micro-titer plate reader for 17.5 hours, with the OD600 read every 30 minutes.
# [5] = tested on: mixed population of clinical isolates (PAO Mixed); test: as above; format: cell-based, Pseudomonas aeruginosa; conditions: 34, 100, 200 and 340 μM of FeQ or FePhe; Amikacin 10 µg/ml; 17.5 hours at 37° C.
# Method: as §1, §2, §3, §4
compound,measurement,setting,value
"O=C1[O][Fe]23([NH]C1Cc1ccc(O)c(O)c1)([NH]C(Cc1ccc(O)c(O)c1)C(=O)[O]2)[NH]C(Cc1ccc(O)c(O)c1)C(=O)[O]3 [FeDOPA, a complex of L-DOPA with Fe III (3,4 dihydrophenylalanine)]",dispersion of mature biofilm,EPEC-AcsrA; FeDOPA 100 μM,dispersed the biofilm
same,"attachment of EPEC cells to plastic well surface and biofilm formation (crystal violet, O.D. 570 nm)",[1],inhibited
same,rate of growth relative to gentamicin alone,"[2]; gentamicin 1.25 μM and FeDOPA 130, 160, 200 μM",inhibited
"O=C1[O][Fe]23([NH]C1Cc1ccc(O)cc1)([NH]C(Cc1ccc(O)cc1)C(=O)[O]2)[NH]C(Cc1ccc(O)cc1)C(=O)[O]3 [FeTyr, a complex of L-tyrosine with Fe III]",average Campylobacter cfu/g of caeca samples at day 42 versus positive control,Campylobacter,lower levels of Campylobacter in their caeca; also recorded: performed better than the positive control
same,dispersion of mature biofilm,"EPEC-AcsrA; FeTyr 100, 150 and 200 μM",biofilm dispersion increased
same,optical absorbance of crystal violet at 570 nm of remaining mature biofilm versus untreated,EPEC-pgA^++,significantly lower optical absorbance
same,rate of growth (growth curve),[2]; Fe-Tyr 100 μM alone,comparable to the control
same,rate of growth relative to gentamicin alone,[2]; gentamicin 1.25 μM and Fe-Tyr 1.25 μM,loses its resistance; also recorded: inhibited
same,"ABW at day 42 versus positive control (challenged, untreated)",[3],performed better than the positive control
same,"MFCR at day 42 versus positive control (challenged, untreated)",[3],performed better than the positive control
A complex of L-phenylalanine with Fe III [Fe-Phe],tolerance to the aminoglycoside Amikacin (OD600 growth),[4],reducing tolerance
same,tolerance to the aminoglycoside Amikacin (OD600 growth),[5],reducing tolerance
